Assays:
Assay type in all cases: cell-based
[1] = system: CGRP; assay: Quantity of neuropeptide CGRP released by neurone culture, ELISA (spontaneous, KCl- or capsaicin-stimulated); settings: KCl 40 mM alone, 20 mins; based on the standard (no test substance) = 100
[2] = system: human PMNs; assay: Respiratory burst: reactive oxygen compounds (ROS) of zymosan-activated human PMNs, luminol luminescence; settings: for Content of reactive oxygen compounds (ROS) (% versus control): 24 h incubation, zymosan activation; for Effectiveness in suppressing inflammatory processes: in words, effectiveness increases with the quantity used
Excerpt: In the course of cutaneous inflammation, leucocytes, for example polymorphonuclear neutrophilic granulocytes (PMNs), are attracted and stimulated by peptides, such as cytokines and other messenger substances such as, for example, leudotrienes released from activated or necrotic cells in the dermis. These stimulated PMNs secrete not only pro-inflammatory cytokines, leucotrienes and proteases, but also reactive oxygen compounds (ROS), such as superoxides and hypochlorite anions for example. This is done to destroy pathogenic bacteria or fungi. This activity of the PMNs is known as respiratory burst and intensifies the inflammation reaction and causes tissue damage through released ROS and lysosomal enzymes.
Particulars of the test procedure can be found in the article by Kapp et al. entitled “The role of immunomodulating cytokines, activation of the oxidative metabolism in human polymorphonuclear neutrophilic granulocytes, Journal of Investigative Dermatology, Vol. 95, pages 94S to 99S, 1990”.
A suspension of human PMNs (1 million cells per milliliter) was exposed to the substances to be tested (incubation for 24 h at 37° C. in an atmosphere containing 5% by volume CO2). The number of PMN cells was determined. The PMNs were activated with 0.1 ml zymosan (an insoluble carbohydrate from the cell wall of yeast), followed by incubation for 0.5 h at 37° C. in an atmosphere containing 5% by volume CO2).
The results are set out in the following Table (% by comparison with the control test). The quantity of ROS was measured with luminol; luminescence was determined for 60 seconds.

[3] = system: human keratinocytes; assay: Protection against UV-B radiation: LDH release from human keratinocytes; settings: 0.003%, UV-B 50 mJ/cm^2, UV-B alone = 100, no UV-B = 0
Experimental: In cultured human cells, these effects of UV-B radiation on the cell membranes are associated with the release of a cytoplasmatic enzyme into the supernatant solution. This cytoplasmatic enzyme is lactate dehydrogenase or LDH (B. Bonnekoh, B. Farkas, J. Geisel and G. Mahrle, Lactate dehydrogenase release as an indicator of dithranol-induced membrane injury in cultured human keratinocytes, Dermatological Research (1990), Vol. 282, pages 325-331).
(§1) Human keratinocytes were incubated for three days at 37° C. in an atmosphere containing 5% by volume carbon dioxide (standard nutrient medium containing foetal calf serum (FCS)). The nutrient medium was then replaced by an isotonic common salt solution containing the substance to be tested (astilbin or engeletin). The keratinocytes were exposed to UV-B radiation (50 mJ/cm^2, DUKE GL40E lamp), followed by incubation for one day at 37° C. in an atmosphere containing 5% by volume carbon dioxide. The supernatant nutrient medium was spectroscopically analyzed for LDH2 and PEG2 by the ELISA method.
(§2) The results are set out in the following Table (% by comparison with the control test).

[4] = system: PGE2; assay: Protection against UV-B radiation: PGE2 release from human keratinocytes, ELISA; settings: 0.003%, UV-B 50 mJ/cm^2, UV-B alone = 100, no UV-B = 0
Excerpt: UV-B radiation (wavelength 280 to 320 nm) causes inflammation of the skin, mainly by activation of an enzyme (phospholipase A2 or PLA2) which releases arachidonic acid from the cell membrane (V. A. De Leo, D. Hanson, I. B. Weinstein and L. C. Harber, Ultraviolet radiation stimulates the release of arachidonic acid from mammalian cells in culture, Photochemistry and Photobiology (1985), Vol. 41, No. 1, pages 51 to 56). Other enzymes (so-called cyclo-oxygenases) then convert the arachidonic acid into active components, so-called prostaglandin (PG for short). The prostaglandin is secreted by the cells. The fixing of certain prostaglandins (PGE2) to specific receptors of the skin leads to reddening and swelling of the skin in the same way as sunburn does.
as §1, §2

Structure (SMILES)	CGRP [1]	Content of reactive oxygen compounds (ROS) (% versus control) ([2]; dose 0.0003%)	Content of reactive oxygen compounds (ROS) (% versus control) ([2]; dose 0.001%)	Content of reactive oxygen compounds (ROS) (% versus control) ([2]; dose 0.003%)	Effectiveness in suppressing inflammatory processes [2]	Quantity of LDH in %/(control without UV-B exposure) [3] [%]	Quantity of LDH in %/(control without UV-B exposure) ([3]; listed as astilbin)	Quantity of PGE2 in %/(control without UV-B exposure) [4] [%]	Quantity of PGE2 in %/(control without UV-B exposure) ([4]; listed as astilbin)	Content of reactive oxygen compounds (ROS) (% versus control) ([2]; dose 0.01%)	Quantity of LDH in %/(control without UV-B exposure) ([3]; listed as engeletin)	Quantity of PGE2 in %/(control without UV-B exposure) ([4]; listed as engeletin)
[Cl-].[K+] [KCl, potassium chloride]	554 ± 8	–	–	–	–	–	–	–	–	–	–	–
C[C@@H]1O[C@@H](O[C@H]2C(=O)c3c(O)cc(O)cc3O[C@@H]2c2ccc(O)c(O)c2)[C@H](O)[C@H](O)[C@H]1O [Pure astilbin, astilbin]	–	47	26	14	very effective	58	reduced	58	reduced	–	–	–
CC1OC(OC2C(=O)c3c(O)cc(O)cc3OC2c2ccc(O)cc2)C(O)C(O)C1O (centres unmarked) [Pure engeletin, engeletin]	–	–	65	50	very effective	47	–	35	–	25	the effect is not as pronounced	the effect is not as pronounced
